From paper PMC9000871, “Rhodamine 101 Conjugates of Triterpenoic Amides Are of Comparable Cytotoxicity as Their Rhodamine B Analogs” (Molecules, 2022)
Counter-ions that a name gives are not always drawn.

Key:
[1] = tested on: NIH 3T3 (fibroblasts), non-malignant; test: SRB cytotoxicity assay, NIH 3T3; type: cell-based; settings: Mus musculus, mean ± standard mean error
Excerpt: (§1) The cell lines were obtained from Department of Oncology (Martin-Luther-University Halle Wittenberg; they were bought from ATCC; A 375 (CRL-1619), HT29 (HTB-38), MCF7 (HTM-22), A2780 (HTP-77), FaDu (HTP-43), NIH 3T3 (CRL-1658), HEK-293 (CRL-1573)). Cultures were maintained as monolayers in RPMI 1640 medium with L-glutamine (Capricorn Scientific GmbH, Ebsdorfergrund, Germany) supplemented with 10% heat inactivated fetal bovine serum (Sigma-Aldrich Chemie GmbH, Steinheim, Germany) and penicillin/streptomycin (1%, Capricorn Scientific GmbH, Ebsdorfergrund, Germany) at 37 °C in a humidified atmosphere with 5% CO2. The cytotoxicity of the compounds was evaluated using the sulforhodamine-B (Kiton-Red S, ABCR) micro culture colorimetric assay using confluent cells in 96-well plates with the seeding of the cells on day 0 applying appropriate cell densities to prevent confluence of the cells during the period of the experiment. On day 1, the cells were treated with six different concentrations (1, 3, 7, 12, 20, and 30 μM); thereby, the final concentration of DMSO was always <0.5%, generally regarded as non-toxic to the cells. On day 4, the supernatant medium was discarded; the cells were fixed with 10% trichloroacetic acid. After another day at 4 °C, the cells were washed in a strip washer and dyed with the SRB solution (100 μL, 0.4% in 1% acetic acid) for about 20 min to be followed by washing of the plates (four times, 1% acetic acid) and air-drying overnight. Furthermore, tris base solution (200 μL, 10 mM) was added to each well and absorbance was measured at λ = 570 nm employing a reader (96 wells, Tecan Spectra, Crailsheim, Germany). The EC50 values were averaged from three independent experiments performed each in triplicate calculated from semi logarithmic dose response curves applying a non-linear four-parameter Hills-slope equation (GraphPad Prism5; variables top and bottom were set to 100 and 0, respectively).

[2] = tested on: HT29 (colon adenocarcinoma); test: SRB cytotoxicity assay, HT29; type: cell-based, human; settings: mean ± standard mean error
Excerpt: as §1

[3] = tested on: FaDu (hypopharyngeal carcinoma); test: SRB cytotoxicity assay, FaDu; type: cell-based; settings: Homo sapiens, 72 h of treatment, mean ± standard mean error
Excerpt: as §1

[4] = tested on: MCF-7 (breast adenocarcinoma); test: SRB cytotoxicity assay, MCF-7; type: cell-based; settings: Homo sapiens, MCF7, 72 h of treatment, mean ± standard mean error
Excerpt: as §1

[5] = tested on: A2780 (ovarian carcinoma); test: SRB cytotoxicity assay, A2780; type: cell-based; settings: Homo sapiens, 72 h of treatment, mean ± standard mean error
Excerpt: as §1

A375 (melanoma) = test: SRB cytotoxicity assay, A375; type: cell-based, human; settings: mean ± standard mean error
Excerpt: as §1

[6] = NIH3T3, 72 h, 72 h of treatment
[7] = Homo sapiens, HT-29, 72 h, 72 h of treatment
[8] = Homo sapiens, A-375, 72 h, 72 h of treatment

| melting point | Structure (SMILES) | EC50 [1, 6] | EC50 [2, 7] | EC50 [3] | EC50 [4] | EC50 [5] | EC50 (A375 (melanoma); [8]) | EC50 (A375 (melanoma); 72 h of treatment) | EC50 ([1]; NIH3T3, 72 h of treatment) | EC50 ([2]; Homo sapiens, HT-29, 72 h of treatment) | EC50 (A375 (melanoma); Homo sapiens, A-375, 72 h of treatment) | EC50 ([2]; 72 h of treatment) |
| --- | --- | --- | --- | --- | --- | --- | --- | --- | --- | --- | --- | --- |
| 245 to 251 °C | CCN(CC)c1ccc2c(-c3ccccc3C(=O)N3CCN(C(=O)[C@]45CC[C@@H](C)[C@H](C)C4C4=CCC6[C@@]7(C)CC[C@H](OC(C)=O)C(C)(C)C7CC[C@@]6(C)[C@]4(C)CC5)CC3)c3ccc(=[N+](CC)CC)cc-3oc2c1 (stereo partly drawn) (as salt: chloride) [compound 15, 9-[2-[[4-(3β-Acetyloxy-28-oxo-ursan-12-en-28-yl)-1-piperazinyl]carbonyl]phenyl]-3,6-bis(diethylamino)-xanthylium chloride] | – | – | – | – | – | – | – | – | – | – | – |
| > 300 °C | CC(=O)O[C@H]1CC[C@@]2(C)C(CC[C@]3(C)C2CC=C2C4CC(C)(C)CC[C@]4(C(=O)N4CCCN(C(=O)c5ccccc5C5=c6cc7c8c(c6Oc6c5cc5c9c6CCCN9CCC5)CCC[N+]=8CCC7)CC4)CC[C@]23C)C1(C)C (some centres unmarked) (as salt: chloride) [compound 26] | – | – | – | – | – | – | – | – | – | – | – |
| > 300 °C | CC(=O)O[C@H]1CC[C@@]2(C)C(CC[C@]3(C)C2CC=C2C4[C@@H](C)[C@H](C)CC[C@]4(C(=O)N4CCCN(C(=O)c5ccccc5C5=c6cc7c8c(c6Oc6c5cc5c9c6CCCN9CCC5)CCC[N+]=8CCC7)CC4)CC[C@]23C)C1(C)C (some centres unmarked) (as salt: chloride) [compound 27] | – | – | – | – | – | – | – | – | – | – | – |
| – | C=C(C)[C@@H]1CC[C@]2(C(=O)O)CC[C@]3(C)[C@H](CC[C@@H]4[C@@]5(C)CC[C@H](O)C(C)(C)[C@@H]5CC[C@]43C)[C@@H]12 [BA, betulinic acid, reference compound] | 16.1 ± 1.4 µM | 14.4 ± 2.3 µM | 13.7 ± 0.9 µM | 10.2 ± 1.2 µM | 8.8 ± 0.9 µM | 17.7 ± 0.4 µM | – | – | – | – | – |
| – | COc1cccc2c1C(=O)c1c(O)c3c(c(O)c1C2=O)C[C@@](O)(C(=O)CO)C[C@@H]3O[C@H]1C[C@H](N)[C@H](O)[C@H](C)O1 [DX, doxorubicin, reference compound] | – | 0.9 ± 0.2 µM | 1.7 ± 0.3 µM | 1.1 ± 0.3 µM | 0.02 ± 0.01 µM | – | – | – | – | – | – |
| – | CC1(C)CC[C@]2(C(=O)O)CC[C@]3(C)C(=CC[C@@H]4[C@@]5(C)CC[C@H](O)C(C)(C)[C@@H]5CC[C@]43C)[C@@H]2C1 [OA, oleanolic acid, reference compound] | > 30 µM | > 30 µM | > 30 µM | > 30 µM | > 30 µM | > 30 µM | – | – | – | – | – |
| – | CC(=O)[C@@H]1CC[C@]2(C(=O)O)CC[C@]3(C)[C@H](CC[C@@H]4[C@@]5(C)CC[C@H](O)C(C)(C)[C@@H]5CC[C@]43C)[C@@H]12 [PA, platanic acid, reference compound] | > 30 µM | > 30 µM | > 30 µM | > 30 µM | > 30 µM | > 30 µM | – | – | – | – | – |
| – | C[C@H]1[C@H](C)CC[C@]2(C(=O)O)CC[C@]3(C)C(=CC[C@@H]4[C@@]5(C)CC[C@H](O)C(C)(C)[C@@H]5CC[C@]43C)[C@H]12 [UA, ursolic acid, reference compound] | – | – | 18.2 ± 1.7 µM | – | – | 15.4 ± 1 µM | – | – | – | – | – |
| – | C=C(C)[C@@H]1CC[C@]2(C(=O)O)CC[C@]3(C)[C@H](CC[C@@H]4[C@@]5(C)CC[C@H](OC(C)=O)C(C)(C)[C@@H]5CC[C@]43C)[C@@H]12 [compound 1, 3β-Acetyloxy-lup-20(29)-en-28-oic Acid] | > 30 µM | 21.3 ± 2 µM | 7.2 ± 1.2 µM | 11 ± 0.5 µM | 18.3 ± 0.5 µM | 21.3 µM | 19.2 ± 1.7 µM | – | – | – | – |
| – | CC(=O)O[C@H]1CC[C@@]2(C)C(CC[C@]3(C)C2CC=C2C4CC(C)(C)CC[C@]4(C(=O)O)CC[C@]23C)C1(C)C (stereo partly drawn) [compound 2, 3β-Acetyloxy-olean-12-en-oic Acid] | – | – | 11.8 ± 0.9 µM | 12.9 ± 1.9 µM | 9.4 ± 0.5 µM | – | – | 17.5 ± 1.5 µM | 20.5 ± 1.7 µM | 13 ± 1.1 µM | – |
| – | CC(=O)O[C@H]1CC[C@@]2(C)C(CC[C@]3(C)C2CC=C2C4[C@@H](C)[C@H](C)CC[C@]4(C(=O)O)CC[C@]23C)C1(C)C (stereo partly drawn) [compound 3, 3β-Acetyloxy-urs-12-en-oic Acid] | 16.4 ± 1.7 µM | 17.3 ± 1.5 µM | 10.7 ± 0.8 µM | 12.1 ± 1.2 µM | 8.3 ± 0.9 µM | 11.4 ± 1.4 µM | – | – | – | – | – |
| 172 to 175 °C | CC(=O)O[C@H]1CC[C@@]2(C)C(CC[C@]3(C)C2CC=C2C4CC(C)(C)CC[C@]4(C(=O)N4CCNCC4)CC[C@]23C)C1(C)C (stereo partly drawn) [compound 6, 3β-Acetyloxy-28-(1-piperazinyl)-olean-12-en-28-one] | 1.7 ± 0.1 µM | 1.3 ± 0.1 µM | – | 1.7 ± 0.2 µM | 1.7 ± 0.1 µM | 1.4 ± 0.2 µM | – | – | – | – | – |
| 187 to 190 °C | CC(=O)O[C@H]1CC[C@@]2(C)C(CC[C@]3(C)C2CC=C2C4[C@@H](C)[C@H](C)CC[C@]4(C(=O)N4CCNCC4)CC[C@]23C)C1(C)C (stereo partly drawn) [compound 7, 3β-Acetyloxy-28-(1-piperazinyl)-urs-12-en-28-one] | 2.1 ± 0.1 µM | 1.9 ± 0.3 µM | – | 1.7 ± 0.2 µM | 2.1 ± 0.1 µM | 2 ± 0.4 µM | – | – | – | – | – |
| 182 to 185 °C | CC(=O)O[C@H]1CC[C@@]2(C)C(CC[C@]3(C)C2CC=C2C4CC(C)(C)CC[C@]4(C(=O)N4CCCNCC4)CC[C@]23C)C1(C)C (stereo partly drawn) [compound 10, 3β-Acetyloxy-28-(1-homopiperazinyl)-olean-12-en-28-one] | 1.8 ± 0.2 µM | 1.9 ± 0.1 µM | – | 1.6 ± 0.1 µM | 2.2 ± 0.1 µM | 1.9 ± 0.9 µM | – | – | – | – | – |
| 171 to 175 °C | CC(=O)O[C@H]1CC[C@@]2(C)C(CC[C@]3(C)C2CC=C2C4[C@@H](C)[C@H](C)CC[C@]4(C(=O)N4CCCNCC4)CC[C@]23C)C1(C)C (stereo partly drawn) [compound 11, 3β-Acetyloxy28-(1-homopierazinyl)-urs-12-en-28-one] | 0.9 ± 0.1 µM | 2 ± 0.1 µM | – | 2.4 ± 0.1 µM | 2.9 ± 0.24 µM | 3.2 ± 0.2 µM | – | – | – | – | – |

| Structure (SMILES) | melting point | EC50 [1, 6] | EC50 [2, 7] | EC50 [3] | EC50 [4] | EC50 [5] | EC50 (A375 (melanoma); [8]) | EC50 (A375 (melanoma); 72 h of treatment) | EC50 ([1]; NIH3T3, 72 h of treatment) | EC50 ([2]; Homo sapiens, HT-29, 72 h of treatment) | EC50 (A375 (melanoma); Homo sapiens, A-375, 72 h of treatment) | EC50 ([2]; 72 h of treatment) |
| --- | --- | --- | --- | --- | --- | --- | --- | --- | --- | --- | --- | --- |
| CCN(CC)c1ccc2c(-c3ccccc3C(=O)N3CCN(C(=O)[C@]45CC[C@@H](C(C)=O)C4C4CCC6[C@@]7(C)CC[C@H](OC(C)=O)C(C)(C)C7CC[C@@]6(C)[C@]4(C)CC5)CC3)c3ccc(=[N+](CC)CC)cc-3oc2c1 (stereo partly drawn) (as salt: chloride) [compound 16, 9-[2-[[4-(3β-Acetyloxy-20,28-dioxo-30-norlupan-28-yl)-1-piperazinyl]carbonyl]phenyl]-3,6-bis(diethylamino)-xanthylium chloride] | 247 to 254 °C | – | – | – | – | – | – | – | – | – | – | – |
| CCN(CC)c1ccc2c(-c3ccccc3C(=O)N3CCCN(C(=O)[C@]45CC[C@@H](C(C)=O)C4C4CCC6[C@@]7(C)CC[C@H](OC(C)=O)C(C)(C)C7CC[C@@]6(C)[C@]4(C)CC5)CC3)c3ccc(=[N+](CC)CC)cc-3oc2c1 (stereo partly drawn) (as salt: chloride) [compound 20, 9-[2-[[4-(3β-Acetyloxy-20,28-dioxo-30-norlupan-28-yl)-1-homopiperazinyl]carbonyl]phenyl]-3,6-bis(diethylamino)-xanthylium chloride] | 248 to 250 °C (dec.) | – | – | – | – | – | – | – | – | – | – | – |
| CC(=O)O[C@H]1CC[C@@]2(C)C(CC[C@]3(C)C2CCC2C4[C@H](C(C)=O)CC[C@]4(C(=O)N4CCCN(C(=O)c5ccccc5C5=c6cc7c8c(c6Oc6c5cc5c9c6CCCN9CCC5)CCC[N+]=8CCC7)CC4)CC[C@]23C)C1(C)C (some centres unmarked) (as salt: chloride) [compound 28] | > 300 °C | – | – | – | – | – | – | – | – | – | – | – |
| CC(=O)O[C@H]1CC[C@@]2(C)C(CC[C@]3(C)C2CCC2C4[C@H](C(C)=O)CC[C@]4(C(=O)N4CCNCC4)CC[C@]23C)C1(C)C (stereo partly drawn) [compound 8, 3β-Acetyloxy-28-(1-piperazinyl)-30-norlupane-20,28-dione] | 127 to 130 °C | 1.3 ± 0.1 µM | 3.86 µM | – | 2.7 ± 0.3 µM | 2.6 ± 0.4 µM | 1.9 ± 0.4 µM | – | – | – | – | 3.9 ± 0.2 µM |
| CC(=O)O[C@H]1CC[C@@]2(C)C(CC[C@]3(C)C2CCC2C4[C@H](C(C)=O)CC[C@]4(C(=O)N4CCCNCC4)CC[C@]23C)C1(C)C (stereo partly drawn) [compound 12, 3β-Acetyloxy-28-(1-homopiperazinyl)-30-norlupane-20,28-dione] | 162 to 165 °C | 0.6 ± 0.1 µM | 2.3 ± 0.2 µM | – | 1.8 ± 0.2 µM | 1.6 ± 0.1 µM | 0.9 ± 0.1 µM | – | – | – | – | – |
